According to the NIST ThermoML archive (doi:10.1016/j.fluid.2016.08.035):

Experiments:
[1] = molar heat capacity at constant pressure; xn = mol fraction of the nth substance listed; details: 101 kPa, Liquid, DSC
[2] = xn = mol fraction of the nth substance listed; details: 101 kPa, Liquid; for viscosity: Falling or rolling sphere viscometry; for speed of sound: Sing-around technique in a fixed-path interferometer; for mass density: Vibrating tube method

CC12CCC(CC1)C(C)(C)O2 [1,3,3-trimethyl-2-oxabicyclo[2.2.2]octane] + CCCCCCCC
Details	mass density, [2] [kg/m3]	molar heat capacity at constant pressure, [1] [J/K/mol]	speed of sound, [2] [m/s]	viscosity, [2] [mPa·s]
278.15 K, x1 = 0.1046	738.47	246.2	1263.8	0.77
278.15 K, x1 = 0.199	759.76	246.45	1270.8	0.87
278.15 K, x1 = 0.2987	782.16	246.89	1279.1	1
278.15 K, x1 = 0.4008	805.03	247.59	1288.5	1.17
278.15 K, x1 = 0.4955	826.13	248.46	1297.8	1.36
278.15 K, x1 = 0.5939	847.98	249.62	1308.4	1.62
278.15 K, x1 = 0.6971	870.82	250.95	1320.1	1.99
278.15 K, x1 = 0.7985	893.16	252.64	1332.5	2.49
278.15 K, x1 = 0.8939	914.06	254.3	1344.9	3.14
278.15 K, x1 = 1	937.25	256.14	1359.6	4.21
298.15 K, x1 = 0.1046	722.35	254.53	1180.9	0.6
298.15 K, x1 = 0.199	743.56	255.32	1188.5	0.66
298.15 K, x1 = 0.2987	765.86	256.22	1197.5	0.75
298.15 K, x1 = 0.4008	788.62	257.36	1207.3	0.86
298.15 K, x1 = 0.4955	809.62	258.59	1216.9	0.98
298.15 K, x1 = 0.5939	831.35	260.07	1227.7	1.14
298.15 K, x1 = 0.6971	854.05	261.75	1239.8	1.37
298.15 K, x1 = 0.7985	876.24	263.66	1252.4	1.65
298.15 K, x1 = 0.8939	897.03	265.57	1264.9	2.02
298.15 K, x1 = 1	920.04	267.69	1278.4	2.6
318.15 K, x1 = 0.1046	705.93	263.19	1099.7	0.48
318.15 K, x1 = 0.199	727.08	264.31	1108.1	0.53
318.15 K, x1 = 0.2987	749.32	265.53	1117.9	0.58
318.15 K, x1 = 0.4008	772.01	267	1128.3	0.66
318.15 K, x1 = 0.4955	792.93	268.51	1138.3	0.74
318.15 K, x1 = 0.5939	814.56	270.26	1149.5	0.85
318.15 K, x1 = 0.6971	837.17	272.14	1162.3	1
318.15 K, x1 = 0.7985	859.26	274.24	1175.6	1.18
318.15 K, x1 = 0.8939	879.92	276.39	1188.3	1.4
318.15 K, x1 = 1	902.84	278.65	1201	1.73
338.15 K, x1 = 0.1046	689.16	272.35	1020.2	0.41
338.15 K, x1 = 0.199	710.27	273.81	1029.6	0.44
338.15 K, x1 = 0.2987	732.46	275.37	1040.3	0.48
338.15 K, x1 = 0.4008	755.1	277.18	1051.6	0.54
338.15 K, x1 = 0.4955	775.96	278.93	1062.3	0.6
338.15 K, x1 = 0.5939	797.55	280.96	1073.8	0.68
338.15 K, x1 = 0.6971	820.1	283.13	1087.4	0.78
338.15 K, x1 = 0.7985	842.12	285.45	1101.4	0.9
338.15 K, x1 = 0.8939	862.72	287.81	1114.5	1.05
338.15 K, x1 = 1	885.57	290.33	1126.7	1.27
